This is an account of results in PMC12615518, “Discovery of CRBN-recruiting PROTAC degraders of the METTL3-METTL14 complex” (Medicinal Chemistry Research, 2025).

Assay [1] has as its target T1, METTL14 (Homo sapiens, UniProt Q9HCE5).
T1 construct: Following treatment, total cellular proteins were extracted using RIPA buffer; endogenous in cells; host or cells: MV4-11 (MV4.11) human AML cells, ATCC
The assay can be described thus: Immunoblotting (Western blot) degradation of METTL14 in MV4-11 cells. It is filed as cell-based. The settings on record: MV4-11 cells, 24 h, immunoblotting; for % reduction in MV4-11 cells, 0.3 µM, METTL14 / % reduction in MV4-11 cells, 1.0 µM, METTL14: nd = no degradation. The protocol: (§1) All cell lines were maintained under standard conditions in a humidified atmosphere at 37 °C with 5% CO₂.
(§2) Western Blot Analysis: Following treatment, total cellular proteins were extracted using RIPA buffer (Auragene, Changsha, China). […] After washing, membranes were incubated with horseradish peroxidase (HRP)-conjugated secondary antibodies (anti-rabbit or anti-mouse IgG; 1:5000) for 2 hours at room temperature. Protein bands were visualized using an enhanced chemiluminescence (ECL) detection kit (Amersham Pharmacia), following the manufacturer's protocol. Band intensities were quantified using ImageJ software and normalized to ACTIN as a loading control. Data was analyzed using GraphPad Prism 9.
On the technique in general: Immunoblotting shows a protein as a band on a membrane.

For assay [2], the target named is METTL3 (Homo sapiens, UniProt Q86U44). The assay can be described thus: Immunoblotting (Western blot) degradation of METTL3 in MV4-11 cells. Format: cell-based. On the set-up: Following treatment, total cellular proteins were extracted using RIPA buffer; endogenous in cells; host or cells: MV4-11 (MV4.11) human AML cells, ATCC. The settings on record: MV4-11 cells, 24 h, immunoblotting; for % reduction in MV4-11 cells, 0.3 µM, METTL3 / % reduction in MV4-11 cells, 1.0 µM, METTL3: nd = no degradation. The protocol: as §1, §2
METTL3, sequence (Q86U44 2-580 limits assumed): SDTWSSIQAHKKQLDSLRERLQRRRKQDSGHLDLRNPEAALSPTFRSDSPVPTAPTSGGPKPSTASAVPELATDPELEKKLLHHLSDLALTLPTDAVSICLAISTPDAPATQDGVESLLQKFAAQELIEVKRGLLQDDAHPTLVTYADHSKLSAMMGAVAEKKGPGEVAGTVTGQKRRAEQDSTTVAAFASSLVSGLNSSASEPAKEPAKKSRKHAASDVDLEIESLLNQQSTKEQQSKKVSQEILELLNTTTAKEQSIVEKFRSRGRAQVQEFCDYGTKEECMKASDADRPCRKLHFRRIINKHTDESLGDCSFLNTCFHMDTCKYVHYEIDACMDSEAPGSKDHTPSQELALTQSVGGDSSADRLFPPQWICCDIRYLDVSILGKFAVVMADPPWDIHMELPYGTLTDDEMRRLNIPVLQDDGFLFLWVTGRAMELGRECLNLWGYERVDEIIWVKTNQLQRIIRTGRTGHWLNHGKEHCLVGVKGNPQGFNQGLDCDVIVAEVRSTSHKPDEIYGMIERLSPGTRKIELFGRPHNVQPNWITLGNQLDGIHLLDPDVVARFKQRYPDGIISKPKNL
METTL3, sequence (Q9HCE5 whole entry partner): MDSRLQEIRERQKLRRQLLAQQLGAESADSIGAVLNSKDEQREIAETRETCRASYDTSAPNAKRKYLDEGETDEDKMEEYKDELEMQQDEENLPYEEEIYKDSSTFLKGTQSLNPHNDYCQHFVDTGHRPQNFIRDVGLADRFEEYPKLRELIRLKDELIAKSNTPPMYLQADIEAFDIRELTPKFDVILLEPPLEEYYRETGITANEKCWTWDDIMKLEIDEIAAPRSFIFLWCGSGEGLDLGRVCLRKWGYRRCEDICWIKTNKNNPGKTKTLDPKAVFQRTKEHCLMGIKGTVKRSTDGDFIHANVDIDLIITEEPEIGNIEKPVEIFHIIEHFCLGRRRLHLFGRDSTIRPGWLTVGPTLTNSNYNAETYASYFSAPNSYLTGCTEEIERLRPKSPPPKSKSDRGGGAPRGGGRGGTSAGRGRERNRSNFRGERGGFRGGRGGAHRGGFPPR

The structures appear in SMILES notation.

T1 sequence (Q9HCE5 whole entry): as the sequence (Q9HCE5 whole entry partner) above
T1 sequence (Q86U44 2-580 partner): as the sequence (Q86U44 2-580 limits assumed) above

Take `CNc1cc(N2CCC3(CC2)CN(c2cc(F)c(CN4CCC(C)(C(=O)NCCCCCCCCCCNc5cccc6c5C(=O)N(C5CCC(=O)NC5=O)C6=O)CC4)cc2F)CC(=O)N3)ncn1` (stereo not drawn) [Compound 5d, 1-(2,5-difluoro-4-(9-(6-(methylamino)pyrimidin-4-yl)-2-oxo-1,4,9-triazaspiro[5.5]undecan-4-yl)benzyl)-N-(10-((2-(2,6-dioxopiperidin-3-yl)-1,3-dioxoisoindolin-4-yl)amino)decyl)-4-methylpiperidine-4-carboxamide]: in assay [1], the “% degradation in MV4-11 cells, 0.3 µM, METTL14” value (“% degradation … 0.3 µM, METTL14” below) was determined as 34% and the “% degradation in MV4-11 cells, 1.0 µM, METTL14” value (“% degradation … 1.0 µM, METTL14” for short) came to 21%. Moreover, in assay [2], the “% degradation in MV4-11 cells, 0.3 µM, METTL3” value (from here on “% degradation … 0.3 µM, METTL3”) worked out at 26% and the “% degradation in MV4-11 cells, 1.0 µM, METTL3” value (“% degradation … 1.0 µM, METTL3” for short) worked out at 3%.

Regarding `CC1(C)CCN(Cc2cc(F)c(N3CC(=O)NC4(CCN(c5cc(NCCCCCCCC(=O)N6CCN(c7ccc8c(c7)CN(C7CCC(=O)NC7=O)C8=O)CC6)ncn5)CC4)C3)cc2F)CC1` (stereo not drawn) [Compound 4h, 3-(5-(4-(8-((6-(4-(4-((4,4-dimethylpiperidin-1-yl)methyl)-2,5-difluorophenyl)-2-oxo-1,4,9-triazaspiro[5.5]undecan-9-yl)pyrimidin-4-yl)amino)octanoyl)piperazin-1-yl)-1-oxoisoindolin-2-yl)piperidine-2,6-dione], in assay [1], the “% reduction in MV4-11 cells, 0.3 µM, METTL14” value (“% reduction … 0.3 µM, METTL14” for short) was determined as 40% and the “% reduction in MV4-11 cells, 1.0 µM, METTL14” value (“% reduction … 1.0 µM, METTL14” below) is reported as 64%. Also, in assay [2], the “% reduction in MV4-11 cells, 0.3 µM, METTL3” value (shortened to “% reduction … 0.3 µM, METTL3”) is listed as 46% and the “% reduction in MV4-11 cells, 1.0 µM, METTL3” value (“% reduction … 1.0 µM, METTL3” below) is 69%.

With `CC1(C)CCN(Cc2cc(F)c(N3CC(=O)NC4(CCN(c5cc(NCCCCC(=O)N6CCN(c7ccc8c(c7)C(=O)N(C7CCC(=O)NC7=O)C8=O)CC6)ncn5)CC4)C3)cc2F)CC1` (stereo not drawn) [Compound 4a, 5-(4-(5-((6-(4-(4-((4,4-dimethylpiperidin-1-yl)methyl)-2,5-difluorophenyl)-2-oxo-1,4,9-triazaspiro[5.5]undecan-9-yl)pyrimidin-4-yl)amino)pentanoyl)piperazin-1-yl)-2-(2,6-dioxopiperidin-3-yl)isoindoline-1,3-dione], in assay [1], the “% reduction … 0.3 µM, METTL14” value worked out at 6% and the “% reduction … 1.0 µM, METTL14” value was 27%. Also, in assay [2], the “% reduction … 0.3 µM, METTL3” value was 14% and the “% reduction … 1.0 µM, METTL3” value is listed as 47%.

As to `CNc1cc(N2CCC3(CC2)CN(c2cc(F)c(CN4CCC(C)(C(=O)NCCCCCCNc5cccc6c5C(=O)N(C5CCC(=O)NC5=O)C6=O)CC4)cc2F)CC(=O)N3)ncn1` (stereo not drawn) [Compound 5b, 1-(2,5-difluoro-4-(9-(6-(methylamino)pyrimidin-4-yl)-2-oxo-1,4,9-triazaspiro[5.5]undecan-4-yl)benzyl)-N-(6-((2-(2,6-dioxopiperidin-3-yl)-1,3-dioxoisoindolin-4-yl)amino)hexyl)-4-methylpiperidine-4-carboxamide], in assay [1], the “% degradation … 0.3 µM, METTL14” value came out at 20% and the “% degradation … 1.0 µM, METTL14” value was 21%. Also, in assay [2], the “% degradation … 0.3 µM, METTL3” value was found to be 55% and the “% degradation … 1.0 µM, METTL3” value is listed as 56%.

As for `CNc1cc(N2CCC3(CC2)CN(c2cc(F)c(CN4CCC(C)(C(=O)NCCCCCCCCNc5cccc6c5C(=O)N(C5CCC(=O)NC5=O)C6=O)CC4)cc2F)CC(=O)N3)ncn1` (stereo not drawn) [Compound 5c, 1-(2,5-difluoro-4-(9-(6-(methylamino)pyrimidin-4-yl)-2-oxo-1,4,9-triazaspiro[5.5]undecan-4-yl)benzyl)-N-(8-((2-(2,6-dioxopiperidin-3-yl)-1,3-dioxoisoindolin-4-yl)amino)octyl)-4-methylpiperidine-4-carboxamide], in assay [1], the “% degradation … 0.3 µM, METTL14” value was determined as 20% and the “% degradation … 1.0 µM, METTL14” value is recorded as 24%. In assay [2], the “% degradation … 0.3 µM, METTL3” value turned out to be 50% and the “% degradation … 1.0 µM, METTL3” value came to 54%.

As to `CC1(C)CCN(Cc2cc(F)c(N3CC(=O)NC4(CCN(c5cc(NCCCCCCC(=O)N6CCN(c7ccc8c(c7)C(=O)N(C7CCC(=O)NC7=O)C8=O)CC6)ncn5)CC4)C3)cc2F)CC1` (stereo not drawn) [Compound 4c, 5-(4-(7-((6-(4-(4-((4,4-dimethylpiperidin-1-yl)methyl)-2,5-difluorophenyl)-2-oxo-1,4,9-triazaspiro[5.5]undecan-9-yl)pyrimidin-4-yl)amino)heptanoyl)piperazin-1-yl)-2-(2,6-dioxopiperidin-3-yl)isoindoline-1,3-dione], in assay [1], the “% reduction … 0.3 µM, METTL14” value worked out at 46% and the “% reduction … 1.0 µM, METTL14” value is on record as 61%. In assay [2], the “% reduction … 0.3 µM, METTL3” value is on record as 43% and the “% reduction … 1.0 µM, METTL3” value came out at 62%.

`CC1(C)CCN(Cc2cc(F)c(N3CC(=O)NC4(CCN(c5cc(NCCCCCCCCC(=O)N6CCN(c7ccc8c(c7)C(=O)N(C7CCC(=O)NC7=O)C8=O)CC6)ncn5)CC4)C3)cc2F)CC1` (stereo not drawn) [Compound 4e, 5-(4-(9-((6-(4-(4-((4,4-dimethylpiperidin-1-yl)methyl)-2,5-difluorophenyl)-2-oxo-1,4,9-triazaspiro[5.5]undecan-9-yl)pyrimidin-4-yl)amino)nonanoyl)piperazin-1-yl)-2-(2,6-dioxopiperidin-3-yl)isoindoline-1,3-dione]: in assay [1], the “% reduction … 0.3 µM, METTL14” value is 39% and the “% reduction … 1.0 µM, METTL14” value is on record as 53%. In assay [2], the “% reduction … 0.3 µM, METTL3” value is recorded as 38% and the “% reduction … 1.0 µM, METTL3” value turned out to be 52%.

`CC1(C)CCN(Cc2cc(F)c(N3CC(=O)NC4(CCN(c5cc(NCCCCCCCCC(=O)N6CCN(c7ccc8c(c7)CN(C7CCC(=O)NC7=O)C8=O)CC6)ncn5)CC4)C3)cc2F)CC1` (stereo not drawn) [Compound 4i, 3-(5-(4-(9-((6-(4-(4-((4,4-dimethylpiperidin-1-yl)methyl)-2,5-difluorophenyl)-2-oxo-1,4,9-triazaspiro[5.5]undecan-9-yl)pyrimidin-4-yl)amino)nonanoyl)piperazin-1-yl)-1-oxoisoindolin-2-yl)piperidine-2,6-dione]: in assay [1], the “% reduction … 0.3 µM, METTL14” value was found to be 54% and the “% reduction … 1.0 µM, METTL14” value came to 72%. Further, in assay [2], the “% reduction … 0.3 µM, METTL3” value was 52% and the “% reduction … 1.0 µM, METTL3” value was found to be 73%.

As for `CC1(C)CCN(Cc2cc(F)c(N3CC(=O)NC4(CCN(c5cc(NCCCCCCC(=O)N6CCN(c7ccc8c(c7)CN(C7CCC(=O)NC7=O)C8=O)CC6)ncn5)CC4)C3)cc2F)CC1` (stereo not drawn) [Compound 4g, 3-(5-(4-(7-((6-(4-(4-((4,4-dimethylpiperidin-1-yl)methyl)-2,5-difluorophenyl)-2-oxo-1,4,9-triazaspiro[5.5]undecan-9-yl)pyrimidin-4-yl)amino)heptanoyl)piperazin-1-yl)-1-oxoisoindolin-2-yl)piperidine-2,6-dione], in assay [1], the “% reduction … 0.3 µM, METTL14” value is 0% and the “% reduction … 1.0 µM, METTL14” value amounted to 34%. Moreover, in assay [2], the “% reduction … 0.3 µM, METTL3” value is given as 9% and the “% reduction … 1.0 µM, METTL3” value worked out at 25%.
